What was measured:
[1] = comparison values; cited from earlier work
[2] = Body weights and clinical observations in the rat single dose decorporation study; format: in vivo, Sprague Dawley rat; settings: iv Ca-DTPA 14 mg/kg, ad libitum; for Mean body weight: in g (unit assumed)
Excerpt: Each rat was weighed at contamination (Day 0) and the terminal body weight (Day 7) was taken at necropsy.

[3] = Stability study in water (pH and precipitation of solubility samples); format: physicochemical; settings: for Precipitation on storage (observation): room temperature, 4° C., −20° C.
Procedure: Method 2 was used to prepare the C2E2 for the dosing formulations. Specifically, Lots 050 and 005-2 were prepared using Method 2, whereas the Reference standard and MTD Lot were prepared using Method 1. For the dosing formulations, de-ionized water (DI water tap in room 18/19) was used with the C2E2 prepared using Method 2. The dosing formulations were compared with C2E2 formulations prepared using Milli-Q water. The pH of each sample was recorded and the values are listed below in Table 2.
In order to re-create the unusual solutions, 1-mL samples of C2E2 (Lots 005-2 and 050; MTD Lot; and Reference std) were made at concentrations of 100 mg/mL in Milli-Q water. A set of samples was stored at room temperature, in the refrigerator (4° C.), and in the −20° C. freezer. […] Storage at 4° C. exacerbates the precipitation of Lot 050. After 8 days, both the Reference Standard and Lot 050 have significant amounts of solid detected at 4° C. and room temperature and crystals have started to form. […] While not wishing to be bound to any particular theory, this is likely because more impurities increase the solubility.

^241Am contaminated rats [4] = test: C2E2 single dose ^241Am decorporation in rats (IM contamination); format: in vivo, Sprague Dawley rat; settings: DTPA 14 mg/kg IV, ad lib; single dose 24 h after IM ^241Am, 7 days, female rats
Procedure: This study was to assess the efficacy of a single oral gavage dose of C2E2 in ^241Am contaminated rats. A 200 μL aliquot was withdrawn from a stock solution of ^241Am nitrate (0.1 mCi in 5 mL 1 M HNO3), evaporated to dryness, dissolved in concentrated HNO3 (15 M, 5 mL) then evaporated to dryness and dissolved in dilute HNO3 (0.1 M, 8 mL) to form the injection solution. Groups of 4 female Sprague-Dawley rats were contaminated with 250 nCi of ^241Am nitrate by IM injection ([…]) then were administered single doses of C2E2 by gavage at 200, 600, or 1000 mg/kg under ad lib feeding conditions utilizing a 10% w/w solution in sterile water (dose volumes were 2, 6, and 10 mL/kg, for the 200, 600, and 1000 mg/kg doses, respectively). For the fasted component of the study, the animals were fasted 24 hours before treatment then for 2 hours post drug administration. Control groups with ad lib access to food and water were either untreated or administered an IV dose of the calcium salt of DTPA (Ca-DTPA) at 14 mg/kg (target dose volume of 0.7 mL/kg and concentration of 20 mg/mL). Treatment was administered 1 day after contamination. All animals were euthanized 7 days after contamination and the following tissues were collected: liver, both kidneys, both femurs as well as the ipsilateral and the contralateral hind leg muscle tissue and the pelt from the injection site. Urine and feces were collected from the time of contamination through euthanasia. Cage washings were also collected at the end of the study and considered part of total urine collection. Two aliquots (100 μL) of the injection solution were removed and ^241Am gamma activity was determined using radiomatic detection. The average of these standards is the injected dose used for all animals. All tissues and samples were counted in a similar manner. Americium content was expressed as a percentage of the injected dose. Overall recovery of radioactivity across all groups in this study was approximately 90%. […] The primary route by which both DTPA and C2E2 enhanced elimination of ^241Am occurred was by urinary clearance. […] Fecal clearance of ^241Am was not altered by feeding status, an observation that is consistent with the similar liver burden between the two groups at the end of the study. […] As with DTPA, enhanced decorporation by C2E2 occurred through enhanced urinary clearance.
Male and female Sprague Dawley rats (n=4/gender/dose) were administered single oral doses of diethylenetriaminepentaacetic acid diethyl ester (C2E2) by gavage 24 hours after intramuscular contamination with ^241Am(NO3)3 (250 nCi) under ad libitum and fasted conditions. Animals received single oral nominal doses of 200, 600, or 1000 mg/kg C2E2. Untreated animals and animals treated with an intravenous dose of Ca-DTPA ([…]) 24 hours after contamination served as controls; only ad libitum conditions were used for control animals. Total radionuclide decorporation and radionuclide tissue burden were evaluated seven days after contamination.
Male and female Sprague Dawley rats were contaminated with ^241Am(NO3)3 (0.25 μCi) by intramuscular injection (0.1 mL, 0.1 M HNO3) into the right hind leg, under isoflurane anesthesia. Immediately after injection, body weights were recorded (Day 0 weight) and animals were placed in individual metabolic cages.
Approximately eight hours after contamination—and 16 hours before test article administration—rats assigned to the Fasted groups had access to food restricted by removing the food chamber from their metabolic cages and collecting all loose chow from their housing chambers. Food chambers were replaced 1 hour after oral gavage treatment, restoring access to food. At all other times all animals had ad libitum access to food.
Male and female Sprague-Dawley rats assigned to test groups each received a single oral gavage dose of 0, 200, 600, or 1000 mg/kg of C2E2 utilizing a 10% w/w solution in water 24 hours after contamination. […]

[5] = Polymorph stability (DSC, competitive ripening, storage); format: physicochemical; settings: higher melting point, lower solubility
Procedure: Samples of C2E2 (˜5 mg) were crimped and evaluated by DSC over a range of 25° C. to 320° C. with a heating rate of 10.00° C./min. A sample was also cycled three times from 25 to 150° C. with a heating rate of 10° C./min and a cooling rate of 5° C./min. Both the MTD Lot and the Reference Standard show a melting point near 120° C. Lot 050 has a melting point of about 140° C.
50 mg each of Lot 050 and the Reference standard were combined in 500 μL of water and stirred at room temperature overnight. After stirring, the remaining solid was filtered from the liquid, allowed to dry and analyzed by DSC.

[6] = Protonation constants by potentiometric titration; format: physicochemical; settings: 5 mM ligand in 0.15 M KCl
Procedure: The protonation constants for C2E2 were determined by preparing a 5 mM solution of free ligand in 0.15 M KCl. The constants were calculated from three replicates, with each experiment consisting of a titration with acid, followed by a titration with base. After each addition of titrant, a 30 second equilibration time passed before pH measurement with a Seven Easy pH meter and (Ag/AgCl reference) glass electrode (Metler Tolledo). At the end of the titrations, the presence of C2E2 was confirmed by HPLC-CAD. Evaluation of the titration curve for C2E2 (FIG. 31) identified 6 pKa values that correspond with the three tertiary amines and three carboxylic acids. The values were determined by refinement using […] software. The pKa values determined for C2E2 are consistent with DTPA analogues previously investigated for use as MRI contrast agents with two carboxylic acids are functionalized such as DTPA-BMA and DTPA-BBA (Rizkalla, E. N., et al., Inorganic Chemistry, 32, 582-586, (1993) and Geraldes C. F., et al., Journal of the Chemical Society-Dalton Transactions, 327-335 (1995)).

^241Am contaminated rats [7] = test: Once vs twice daily dosing ^241Am decorporation study in rats; format: in vivo, Sprague Dawley rat; settings: Zn-DTPA 13.3 mg/kg intravenous daily x5, male rats, seven days after IM ^241Am
Procedure: The animal study was conducted according to a protocol approved by The University of North Carolina at Chapel Hill Institutional Animal Care and Use Committee. Sixteen male Sprague Dawley rats were contaminated with ^241Am(NO3)3 (0.25 μCi) by intramuscular injection (0.1 mL, 0.1 M HNO3) into the right hind leg, under isoflurane anesthesia. Immediately after injection, body weights were recorded (Day 0 weight) and animals placed in individual metabolic cages. The 16 rats were assigned to four groups; untreated control, 5 daily oral gavage doses of 600 mg/kg C2E2 once daily, 5 days of oral gavage treatment of 300 mg/kg C2E2 twice daily or 5 daily intravenous doses of Zn-DTPA solution (13.3 mg/kg) via a jugular vein catheter. The C2E2 was from Lot 050 obtained using Method 2. The C2E2 dosing solution utilized was a 10% w/w solution in water. […] Excreted urine and feces were collected at 2, 4, 8, 10, 12, 14, 18, 20 and 24 hours after the first dose and daily for the remainder of the study. The samples were transferred to 20 mL scintillation vials, weighed and placed in a gamma counter (Wizard2 2480, Perkin Elmer) for detection of ^241Am gamma activity. In addition, following necropsy, selected tissues were removed, weighed and placed in a gamma counter (Wizard2 2480, Perkin Elmer) for detection of ^241Am gamma activity. The total amount of ^241Am administered to the animals was determined by quantifying the 59.7 keV photons emitted by ^241Am in duplicate aliquots (100 μL) of the injection solution using a gamma counter (wizard series, Perkin-Elmer). A counting window from 40-80 keV and a 60-second counting time were used for acquisition and each reading was corrected for background at acquisition. All experimental tissues and samples were counted using the same gamma counter and protocol. For all the samples, ^241Am content was expressed as a percentage of the initial dose. The femur from the leg opposite to the injection site was scaled by a factor of 20 to estimate total skeletal ^241Am burden.

O=C(O)CN(CCN(CC(=O)O)CC(=O)O)CC(=O)O [EDTA]
Stability of the gadolinium complex, log K [1]: 17.0

O=C([O-])CN(CCN(CC(=O)[O-])CC(=O)[O-])CCN(CC(=O)[O-])CC(=O)[O-].[Ca+2].[Na+].[Na+].[Na+] [Ca-DTPA, reference compound]
Mean Percentage Body Weight Change ([2]; Female): −0.1 ± 1.9%
Mean Percentage Body Weight Change ([2]; Male): 4.5 ± 6.1%
Mean body weight ([2]; female rats, Day 0): 273.6 ± 7.7
Mean body weight ([2]; female rats, Day 7 (terminal)): 273.3 ± 11.2
Mean body weight ([2]; male rats, Day 0): 301.0 ± 4.0
Mean body weight ([2]; male rats, Day 7 (terminal)): 314.6 ± 20.4

CCOC(=O)CN(CCN(CCN(CC(=O)O)CC(=O)OCC)CC(=O)O)CC(=O)O [MTD Lot, 6,9-bis(carboxymethyl)-3-(2-ethoxy-2-oxoethyl)-11-oxo-12-oxa-3,6,9-triazatetradecan-1-oic acid]
pH of formulations prepared using Milli-Q water ([3]; 100 mg/mL): 2.35
Precipitation on storage (observation) ([3]; 100 mg/mL in Milli-Q water): do not come out of solution

diethylenetriamine pentaacetic acid [DTPA]
Stability of the gadolinium complex, log K [1]: 22.5
Cage Wash ^241Am (^241Am contaminated rats [4]): 3.6 ± 0.8%
Feces ^241Am (^241Am contaminated rats [4]): 10.3 ± 1.7%
Liver burden (^241Am contaminated rats [4]): 12.3 ± 1.2 % injected
Total Decorporation (^241Am contaminated rats [4]): 36.1 ± 4.6 % injected
Urine ^241Am (^241Am contaminated rats [4]): 22.1 ± 2.6%

CCOC(=O)CN(CCN(CCN(CC(=O)O)CC(=O)OCC)CC(=O)O)CC(=O)O [Lot 050, 6,9-bis(carboxymethyl)-3-(2-ethoxy-2-oxoethyl)-11-oxo-12-oxa-3,6,9-triazatetradecan-1-oic acid]
Relative stability of polymorph [5]: most stable
pH of formulations prepared using de-ionized water ([3]; 20 mg/mL): 3.04
pH of formulations prepared using de-ionized water ([3]; 60 mg/mL): 2.93
pH of formulations prepared using Milli-Q water ([3]; 100 mg/mL): 2.60
pH of formulations prepared using de-ionized water ([3]; 100 mg/mL): 2.93
Precipitation on storage (observation) ([3]; 100 mg/mL in Milli-Q water): begins to come out of solution after three days

CCOC(=O)CN(CCN(CCN(CC(=O)O)CC(=O)OCC)CC(=O)O)CC(=O)O [Lot 005-2, 6,9-bis(carboxymethyl)-3-(2-ethoxy-2-oxoethyl)-11-oxo-12-oxa-3,6,9-triazatetradecan-1-oic acid]
pH of formulations prepared using Milli-Q water ([3]; 100 mg/mL): 2.54
Precipitation on storage (observation) ([3]; 100 mg/mL in Milli-Q water): do not come out of solution

CCOC(=O)CN(CCN(CCN(CC(=O)O)CC(=O)OCC)CC(=O)O)CC(=O)O [Reference Standard, 6,9-bis(carboxymethyl)-3-(2-ethoxy-2-oxoethyl)-11-oxo-12-oxa-3,6,9-triazatetradecan-1-oic acid]
Time at which material starts to precipitate ([3]; 100 mg/mL in Milli-Q water, regardless of storage temperature): ≤ 24 h
pH of formulations prepared using Milli-Q water ([3]; 100 mg/mL, listed as Purified C2E2 (Reference std)): 2.43

CCOC(=O)CN(CCN(CCN(CC(=O)O)CC(=O)O)CC(=O)O)CC(=O)O [C2E1]
PKa2 [6]: 2.99 ± 0.05
pKa1 [6]: 6.35
pKa3 [6]: 1.72 ± 1.5
pKa4 [6]: 1.18 ± 0.45
pKa5 [6]: <1.5
pKa6 [6]: <1.5

O=C([O-])CN(CCN(CC(=O)[O-])CC(=O)[O-])CCN(CC(=O)[O-])CC(=O)[O-].[Na+].[Na+].[Na+].[Zn+2] [i.v. Control, reference compound]
Total Decorporation (^241Am contaminated rats [7]): 54.0 ± 3.9 % of injected dose
